Test results from patent publication US10526327B2, “Histone demethylase inhibitors” (CELGENE QUANTICEL RESEARCH, INC., priority 2013, dated 2020).

System: KDM5A/B
Test: In vitro cell-based assay: immuno-blot quantification of tri-methyl H3K4 in ZR-75-1 breast cancer cells
Details: 72 hours, tri-methyl H3K4 level relative to GAPDH, percent of DMSO, read-out: Cellular IC50
From the text: An assay to measure the degree of cellular inhibition of KDM5A and 5B was developed. This quantitative immuno-blotting assay measures the amount tri-methylated histone H3 at amino acid Lysine number 4, a specific substrate […] of the direct enzymatic activity of the histone demethylases KDM5A and KDM5B from extracts of the ZR-75-1 breast cancer cell line.
This assay is a fluorometric immunoassay for the quantification of tri-methyl H3K4 extracted from cells treated with test compound and is used as a measure of the cellular inhibition of KDM5A/B.
ZR-75-1 (PTEN null, ER+) breast cancer cells numbering 50,000 (ATCC) were seeded into each well of a 96-well tissue culture treated plate and then exposed to an 11 point dilution of test compound with final concentration ranges of test compound ranging from 1250 μM to 10 nM. Cells were left in the presence of test compound for 72 hours. Extracts were prepared containing all of the cellular histone material using detergent based lysis and sonication methods. These lysates were subsequently normalized for total protein content using a colorimetric bicinchonic acid assay (MicroBCA Pierce/Thermo Scientific). Normalized cell extracts were then subjected to typical immuno-blotting procedures using NuPage reagents (Life Technologies). Electrophoretically separated histones were then transferred and immobilized using polyvinylidene difluoride membrane (Immobilon-FL Millipore). The amount of tri-methylated lysine 4 of histone H3 was detected using an antibody specific to the tri-methylated state (Cell Signaling Technologies) and quantified on an infrared imager using a densitometry software package (Odyssey CLx, Image Studio, Li-Cor). This background subtracted densitometry value was reported as a ration of the GAPDH amount for that sample and then calculated as a percent of the DMSO treated sample. The software package XL-fit (IDBS) was then used to calculate a relative IC50 value for the dilution series of a given test compound according to the equation: fit=(D+((Vmax*(x^n))/((x^n)+(Km^n)))).

Compound	IC50
O=S(=O)(C1CC1)N1CCCC(n2cc(Oc3nc(O)c4ccncc4n3)cn2)C1 (stereo in doubt) [Example 151, 2-({1-[(3S)-1-(cyclopropanesulfonyl)piperidin-3-yl]-1H-pyrazol-4-yl}oxy)pyrido[3,4-d]pyrimidin-4-ol]	100 to 1000 nM
Oc1nc(OCCC(F)(F)F)nc2cnccc12 [Example 13, 2-(3,3,3-trifluoropropoxy)pyrido[3,4-d]pyrimidin-4-ol]	> 10000 nM
CC(C)CCOc1nc(O)c2ccncc2n1 [Example 15, 2-(3-methylbutoxy)pyrido[3,4-d]pyrimidin-4-ol]	> 10000 nM
Oc1nc(OCCc2ccccc2)nc2cnccc12 [Example 18, 2-(2-phenylethoxy)pyrido[3,4-d]pyrimidin-4-ol]	1000 to 10000 nM
Oc1nc(OCCCC(F)(F)F)nc2cnccc12 [Example 20, 2-(4,4,4-trifluorobutoxy)pyrido[3,4-d]pyrimidin-4-ol]	> 10000 nM
Cn1cnc(-c2nccc3c(O)nc(Oc4ccc(Cl)c(Cl)c4)nc23)c1 [Example 113, 2-(3,4-dichlorophenoxy)-8-(1-methyl-1H-imidazol-4-yl)pyrido[3,4-d]pyrimidin-4-ol]	100 to 1000 nM
CCC(c1ccccc1)n1cc(Oc2nc(O)c3ccncc3n2)cn1 (stereo not drawn) [Example 115, 2-{[1-(1-phenylpropyl)-1H-pyrazol-4-yl]oxy}pyrido[3,4-d]pyrimidin-4-ol]	1000 to 10000 nM
C[C@H](c1ccccc1)n1cc(Oc2nc(O)c3ccncc3n2)cn1 [Example 117, 2-({1-[(1R)-1-phenylethyl]-1H-pyrazol-4-yl}oxy)pyrido[3,4-d]pyrimidin-4-ol]	1000 to 10000 nM
C[C@@H](c1ccccc1)n1cc(Oc2nc(O)c3ccncc3n2)cn1 [Example 118, 2-({1-[(1S)-1-phenylethyl]-1H-pyrazol-4-yl}oxypyrido) [3,4-d]pyrimidin-4-ol]	100 to 1000 nM
C[C@H](c1ccccc1F)n1cc(Oc2nc(O)c3ccncc3n2)cn1 [Example 119, 2-({1-[(1R)-1-(2-fluorophenyl)ethyl]-1H-pyrazol-4-yl}oxy)pyrido[3,4-d]pyrimidin-4-ol]	100 to 1000 nM
C[C@@H](c1ccccc1F)n1cc(Oc2nc(O)c3ccncc3n2)cn1 [Example 120, 2-({1-[(1s)-1-(2-fluorophenyl)ethyl]-1H-pyrazol-4-yl}oxy)pyrido[3,4-d]pyrimidin-4-ol]	1000 to 10000 nM
Oc1nc(Oc2cnn(Cc3ccccc3Cl)c2)nc2cnccc12 [Example 121, 2-({1-[(2-chlorophenyl)methyl]-1H-pyrazol-4-yl}oxy)pyrido[3,4-d]pyrimidin-4-ol]	1000 to 10000 nM
Oc1nc(Oc2cnn(Cc3cccc(Cl)c3)c2)nc2cnccc12 [Example 122, 2-({1-[(3-chlorophenyl)methyl]-1H-pyrazol-4-yl}oxy)pyrido[3,4-d]pyrimidin-4-ol]	1000 to 10000 nM
Oc1nc(Oc2cnn(CCN3CCOCC3)c2)nc2cnccc12 [Example 124, 2-({1-[2-(morpholin-4-yl)ethyl]-1H-pyrazol-4-yl}oxy)pyrido[3,4-d]pyrimidin-4-ol]	100 to 1000 nM
Oc1nc(Oc2cnn([C@@H]3CCNC3)c2)nc2cnccc12 [Example 125, 2-({1-[(3R)-pyrrolidin-3-yl]-1H-pyrazol-4-yl}oxy)pyrido[3,4-d]pyrimidin-4-ol]	> 10000 nM
CCS(=O)(=O)N1CC[C@@H](n2cc(Oc3nc(O)c4ccncc4n3)cn2)C1 [Example 126, 2-({1-[(3R)-1-(ethanesulfonyl)pyrrolidin-3-yl]-1H-pyrazol-4-yl}oxy)pyrido[3,4-d]pyrimidin-4-ol]	> 10000 nM
O=S(=O)(C1CC1)N1CC[C@@H](n2cc(Oc3nc(O)c4ccncc4n3)cn2)C1 [Example 127, 2-({1-[(3R)-1-(cyclopropanesulfonyl)pyrrolidin-3-yl]-1H-pyrazol-4-yl}oxy)pyrido[3,4-d]pyrimidin-4-ol]	1000 to 10000 nM
O=S(=O)(c1ccccc1)N1CC[C@@H](n2cc(Oc3nc(O)c4ccncc4n3)cn2)C1 [Example 128, 2-({1-[(3R)-1-(benzenesulfonyl)pyrrolidin-3-yl]-1H-pyrazol-4-yl}oxy)pyrido[3,4-d]pyrimidin-4-ol]	1000 to 10000 nM

Compound	IC50
CC(=O)N1CC[C@@H](n2cc(Oc3nc(O)c4ccncc4n3)cn2)C1 [Example 129, 1-[(3R)-3-[4-({4-hydroxypyrido[3,4-d]pyrimidin-2-yl}oxy)-1H-pyrazol-1-yl]pyrrolidin-1-yl]ethan-1-one]	> 10000 nM
N#CCC(=O)N1CC[C@@H](n2cc(Oc3nc(O)c4ccncc4n3)cn2)C1 [Example 130, 3-[(3R)-3-[4-({4-hydroxypyrido[3,4-d]pyrimidin-2-yl}oxy)-1H-pyrazol-1-yl]pyrrolidin-1-yl]-3-oxopropanenitrile]	> 10000 nM
O=C(C1CC1)N1CC[C@@H](n2cc(Oc3nc(O)c4ccncc4n3)cn2)C1 [Example 131, 2-({1-[(3R)-1-cyclopropanecarbonylpyrrolidin-3-yl]-1H-pyrazol-4-yl}oxy)pyrido[3,4-d]pyrimidin-4-ol]	1000 to 10000 nM
O=C(c1ccccc1)N1CC[C@@H](n2cc(Oc3nc(O)c4ccncc4n3)cn2)C1 [Example 132, 2-({1-[(3R)-1-benzoylpyrrolidin-3-yl]-1H-pyrazol-4-yl}oxy)pyrido[3,4-d]pyrimidin-4-ol]	1000 to 10000 nM
Oc1nc(Oc2cnn([C@@H]3CCN(Cc4ccccc4)C3)c2)nc2cnccc12 [Example 133, 2-({1-[(3R)-1-benzylpyrrolidin-3-yl]-1H-pyrazol-4-yl}oxy)pyrido[3,4-d]pyrimidin-4-ol]	1000 to 10000 nM
Oc1nc(Oc2cnn([C@@H]3CCN(c4ccc(F)cc4)C3)c2)nc2cnccc12 [Example 134, 2-({1-[(3R)-1-(4-fluorophenyl)pyrrolidin-3-yl]-1H-pyrazol-4-yl}oxy)pyrido[3,4-d]pyrimidin-4-ol]	100 to 1000 nM
Oc1nc(Oc2cnn([C@H]3CCNC3)c2)nc2cnccc12 [Example 135, 2-({1-[(3S)-pyrrolidin-3-yl]-1H-pyrazol-4-yl}oxy)pyrido[3,4-d]pyrimidin-4-ol]	> 10000 nM
CCS(=O)(=O)N1CC[C@H](n2cc(Oc3nc(O)c4ccncc4n3)cn2)C1 [Example 136, 2-({1-[(3S)-1-(ethanesulfonyl)pyrrolidin-3-yl]-1H-pyrazol-4-yl}oxy)pyrido[3,4-d]pyrimidin-4-ol]	100 to 1000 nM
O=S(=O)(C1CC1)N1CC[C@H](n2cc(Oc3nc(O)c4ccncc4n3)cn2)C1 [Example 137, 2-({1-[(3S)-1-(cyclopropanesulfonyl)pyrrolidin-3-yl]-1H-pyrazol-4-yl}oxy)pyrido[3,4-d]pyrimidin-4-ol]	100 to 1000 nM
O=S(=O)(c1ccccc1)N1CC[C@H](n2cc(Oc3nc(O)c4ccncc4n3)cn2)C1 [Example 138, 2-({1-[(3S)-1-(benzenesulfonyl)pyrrolidin-3-yl]-1H-pyrazol-4-yl}oxy)pyrido[3,4-d]pyrimidin-4-ol]	1000 to 10000 nM
CC(=O)N1CC[C@H](n2cc(Oc3nc(O)c4ccncc4n3)cn2)C1 [Example 139, 1-[(3S)-3-[4-({4-hydroxypyrido[3,4-d]pyrimidin-2-yl}oxy)-1H-pyrazol-1-yl]pyrrolidin-1-yl]ethan-1-one]	> 10000 nM
N#CCC(=O)N1CC[C@H](n2cc(Oc3nc(O)c4ccncc4n3)cn2)C1 [Example 140, 3-[(3S)-3-[4-({4-hydroxypyrido[3,4-d]pyrimidin-2-yl}oxy)-1H-pyrazol-1-yl]pyrrolidin-1-yl]-3-oxopropanenitrile]	> 10000 nM
O=C(C1CC1)N1CC[C@H](n2cc(Oc3nc(O)c4ccncc4n3)cn2)C1 [Example 141, 2-({1-[(3S)-1-cyclopropanecarbonylpyrrolidin-3-yl]-1H-pyrazol-4-yl}oxy)pyrido[3,4-d]pyrimidin-4-ol]	> 10000 nM
O=C(c1ccccc1)N1CC[C@H](n2cc(Oc3nc(O)c4ccncc4n3)cn2)C1 [Example 142, 2-({1-[(3S)-1-benzoylpyrrolidin-3-yl]-1H-pyrazol-4-yl}oxy)pyrido[3,4-d]pyrimidin-4-ol]	> 10000 nM
Oc1nc(Oc2cnn([C@H]3CCN(c4ccccc4)C3)c2)nc2cnccc12 [Example 145, 2-({1-[(3S)-1-phenylpyrrolidin-3-yl]-1H-pyrazol-4-yl}oxy)pyrido[3,4-d]pyrimidin-4-ol]	1000 to 10000 nM
Oc1nc(Oc2cnn([C@H]3CCN(c4ccc(F)cc4)C3)c2)nc2cnccc12 [Example 146, 2-({1-[(3S)-1-(4-fluorophenyl)pyrrolidin-3-yl]-1H-pyrazol-4-yl}oxy)pyrido[3,4-d]pyrimidin-4-ol]	1000 to 10000 nM
Oc1nc(Oc2cnn([C@H]3CCN(c4ccccc4F)C3)c2)nc2cnccc12 [Example 147, 2-({1-[(3S)-1-(2-fluorophenyl)pyrrolidin-3-yl]-1H-pyrazol-4-yl}oxy)pyrido[3,4-d]pyrimidin-4-ol]	1000 to 10000 nM
Oc1nc(Oc2cnn([C@H]3CCN(c4ccc(Cl)cc4)C3)c2)nc2cnccc12 [Example 148, 2-({1-[(3S)-1-(4-chlorophenyl)pyrrolidin-3-yl]-1H-pyrazol-4-yl}oxy)pyrido[3,4-d]pyrimidin-4-ol]	1000 to 10000 nM
